# Assay results taken from patent US10238677B2, “Treatment of filarial diseases” (AbbVie Inc., priority 2015, dated 2019).
# Several values for one entry are separate records, joined by “and”; a condition that tells them apart may be missing. Identical values can stand only once.
# What was measured:
# Loa loa microfilariae = Loa loa microfilariae ex vivo counter-screen; type: cell-based; conditions: for Motility (mean % vs baseline) / Survival (%): 64 μg/ml
# Excerpt: This ex vivo assay is used to assess direct Loa loa microfilaricidal effects of drug compounds. Bloodborne Loa loa microfilariae are generated from experimental infections of splenectomised baboons with the human stain of L. loa (Orihel et al, Trop Med Parasitol, 1985. 36: p.215). L. loa microfilariae were purified from venous blood samples by Percoll gradient centrifugation. Loa loa microfilariae were adjusted to a density of 0.5×10^4/ml and plated into 96-well plates in Dulbecco's Modified Eagle Medium (DMEM) containing 10% Foetal Calf Serum (FCS). Triplicate wells of Loa loa microfilariae were exposed to either ivermectin (64 μg/ml: positive control), compound 10 (0.018 and 0.18 μg/ml), compound 19 (0.11 and 1.11 μg/ml) or 0.1% DMSO vehicle control. Dose levels of compound 10 and compound 19 were matched to predictive Cmax and 10× Cmax human plasma concentrations based on PK-PD modeling. L. loa were cultured at 37° C./5% CO2 for +7 days and monitored daily with a semi-quantitative score applied to individual mf motility.
# [1] = test system: Wolbachia in Litomosoides sigmodontis larvae; test: Larval Litomosoides sigmodontis mouse model, Wolbachia ftsZ qPCR; type: in vivo, BALB/c mice; conditions: vs vehicle control
# Method: In this mouse model of filariasis (Hoerauf A, et al. (1999) Journal of Clinical Investigation 103(1):11-18), BALB/c mice (6-8 week old) were infected via natural larvae transmission, through the bite of infected tropical mites (Ornithonyssus bacoti), and treatment started on the day following infection. Anti-Wolbachia efficacy was measured by quantitative PCR analysis, using genomic DNA extracted from larvae, of the Wolbachia ftsZ gene, and expressed as a reduction in Wolbachia load in comparison to the vehicle control group. […] Thus, tylosin A effectively cleared Wolbachia from filarial larvae (Litomosoides sigmodontis) in a mouse model of filariasis when delivered parenterally (intraperitoneally), to a similar extent to doxycycline, with a shorter dosing regimen.
# [2] = test system: Wolbachia in Brugia malayi larvae; test: Larval Brugia malayi mouse model, Wolbachia wsp qPCR; type: in vivo, BALB/c IL4Rα−/− mice; conditions: vs median vehicle control
# Excerpt: […] At 14 days post-infection, larvae were recovered from the peritoneal cavity, counted, and length measured. Genomic DNA was extracted from individual worms (10/group) and quantification of the Wolbachia surface protein (wBm-wsp) gene copy numbers performed by quantitative PCR.
# Treatment dose (mg/kg) shown in parentheses and duration stated in days (d). Abbreviations: DOX (doxycycline), bid (twice daily), qd (once daily), PO (oral), […]. Data in Table 2 are expressed as a reduction in Wolbachia load in comparison to the vehicle control group.
# […] […] Treatment dose (mg/kg) shown in parentheses and duration stated in days (d). Abbreviations: DOX (doxycycline), qd (once daily).
# [3] = test system: Wolbachia in adult Brugia malayi; test: Adult Brugia malayi jird model, Wolbachia load; type: in vivo, Mongolian jirds (Meriones unguiculatus); conditions: Table 6; 200 mg/kg qd oral 21 d; vs median vehicle control
# Method: (§1) In this model of adult filarial (macrofilariae) infection, Mongolian jirds (Meriones unguiculatus) were infected intraperitoneally with Brugia malayi third-stage larvae (Ash and Riley, (1970) J Parasitol. 56(5):969-73). Infected jirds were treated at +12-20 weeks post-infection for periods up to 6 weeks. Jirds were necropsied for worm recoveries. Adult worms were staged for sex and motile released microfilariae were counted. Genomic DNA was extracted from individual worms (10/group) and quantification of the Wolbachia surface protein (wBm-wsp) and Brugia malayi glutathione S-transferase (Bm-gst) gene copy numbers performed by quantitative PCR, and expressed as a reduction in Wolbachia load in comparison to the vehicle control group.
# (§2) Treatment dose (mg/kg/day) shown in parentheses and duration stated in days (d). DOX (doxycycline), qd (once daily).
# [4] = test system: Brugia malayi microfilariae; test: Adult Brugia malayi jird model, motile peritoneal microfilariae load; type: in vivo, Mongolian jirds (Meriones unguiculatus); conditions: Table 7, 200 mg/kg qd oral 21 d
# Method: as §1, §2
# [5] = test system: Wolbachia in adult male Onchocerca ochengi; test: Adult Onchocerca ochengi mouse model, Wolbachia:gst qPCR; type: in vivo, CB.17 SCID (BALB/c congenic) mice; conditions: Table 8; 25 mg/kg bid oral 28 d; vs median vehicle control
# Method: In this model, adult male Onchocerca ochengi (closest relative species to the human parasite causing river blindness, Onchocerca volvulus) are derived from cattle natural hosts and surgically implanted into the peritoneal cavity of CB.17 SCID (BALB/c congenic) mice under anaesthesia (Halliday et al Parasit. Vectors 2014 7:472). After 3 days following surgery, mice were treated by oral gavage for periods up to 4 weeks. Mice were necropsied for worm recoveries 6 weeks after start of treatment. Genomic DNA was extracted from individual worms (n=10/group) and quantification of the Wolbachia surface protein (wBm-wsp) and Onchocerca glutathione S-transferase (Ov-gst) gene copy numbers performed by quantitative PCR. Data is expressed as a reduction in Wolbachia:gst ratios in comparison to the vehicle control group.
# Treatment dose (mg/kg/day) shown in parentheses and duration stated in days (d). DOX (doxycycline), qd (once daily) bid (twice daily).
# [6] = test system: Wolbachia pipientis (Wolbachia strain wAlbB) in C6/36 Aedes albopictus cell line; test: In vitro anti-Wolbachia cell-based screening assay; conditions: Table 1A, anti-Wolbachia activity, 7 days incubation
# Method: A C6/36 Aedes albopictus cell line infected with Wolbachia pipientis (Wolbachia strain wAlbB) derived from Aa23 A. albopictus cell line (O'Neill et al., 1997; Insect Mol Biol; Turner et al., (2006) J. Immunol. 7:1240-1249) was used to screen compounds. Cells were cultured in Leibovitz's L15 +L-glutamine supplemented with heat-inactivated Foetal Calf Serum (HI-FCS), non-essential amino acids and tryptose phosphate broth. Culture medium was filter-sterilized through a 0.2 μm filter and stored at 4° C. Compounds were provided as 10 mM stocks in DMSO, diluted to 50 μM working stock to give final concentration of 5 μM on the test plate. Concentrated stocks were frozen at −20° C.
# Prior to use in the screening assay, cell cultures were sub-passaged (6 days prior) to provide ˜90% confluent cells on Day 0 of screening assay. On Day 0 (assay set-up), the medium was removed from the stock culture flask and replaced with fresh medium. The cells were detached by scraping and cell density was calculated using an automated cell counter. The cells were then diluted at working density and aliquoted at 90 μl to each well of a Cell Carrier 384 well plate (Perkin Elmer). Cell plates were incubated at 26° C.
# Control solution (DMSO-medium) was dispensed at 10 μl per well for “untreated” wells. Test solution (Drug-DMSO) was also dispensed at 10 μl (from working plate) per well for “treated” wells. The plates were incubated at 26° C., inside plastic wallet in incubator, for 7 days.
# On Day 7, 25 μl of staining medium/dye (SYTO 11, Life Technologies) was added to each sample well and allowed to stain for 15 minutes in the dark. All the medium was removed from each sample well without disturbing the cells and replaced with 100 μl of fresh medium. Plates were imaged on the Operetta High Content Imaging system (Perkin Elmer) and analyzed using texture analysis through Harmony software (Perkin Elmer). The cell-based screen and analysis are described in detail in Clare et al. (2014) J Biomol Screen.
# [7] = test system: Wolbachia in adult Brugia malayi; test: Adult Brugia malayi mouse model, Wolbachia wsp qPCR; type: in vivo, BALB/c CCR3−/− mice
# Excerpt: In an adult Brugia malayi mouse model treatment groups (BALB/c CCR3−/−mice, 6-8 week old) received compounds by oral delivery for 7-28 days beginning at 6-10 weeks post-infection intraperitoneal with Brugia malayi third-stage larvae. Following treatment, at 12 weeks post-infection, adult worms and released microfilariae were recovered from the peritoneal cavity, counted and staged for sex. Genomic DNA was extracted from individual adult worms (10/group) and quantification of the Wolbachia surface protein (wBm-wsp) performed by quantitative PCR.
# Treatment dose (mg/kg/day) shown in parentheses and duration stated in days (d). MIN (minocycline), bid (twice daily), qd (once daily). Data in Table 4 are expressed as a reduction in Wolbachia load in comparison to the vehicle control group.
# Treatment dose (mg/kg/day) shown in parentheses and duration stated in days (d). MIN (minocycline), bid (twice daily), qd (once daily).
# [8] = Table 2, 50 mg/kg qd PO 14 d, 50 mg/kg
compound,measurement,setting,value
ivermectin,Motility (mean % vs baseline),Loa loa microfilariae; exposure time 2 days,5.71%
same,Survival (%),Loa loa microfilariae; exposure time 2 days,100%
same,Motility (mean % vs baseline),Loa loa microfilariae; exposure time 7 days,0%
same,Survival (%),Loa loa microfilariae; exposure time 7 days,0%
same,Effect on Loa loa microfilariae motility (in words),"Loa loa microfilariae; ex vivo culture, period of 7 days",completely immotile
same,Reduction in motility,Loa loa microfilariae; in +2 days,> 90%
C[C@H]1c2cccc(O)c2C(=O)C2=C(O)[C@]3(O)C(=O)C(C(N)=O)=C(O)[C@@H](N(C)C)[C@@H]3[C@@H](O)[C@@H]21 [doxycycline],Wolbachia reduction,[1]; 50 mg/kg/day for 14 days,99.9%
same,% Wolbachia reduction,"[2]; Table 2, 50 mg/kg qd PO 7 d",88.7%
same,% Wolbachia reduction,[2]; [8],98.3%
same,% Wolbachia reduction,"[2]; Table 2, 50 mg/kg qd PO 14 d, listed as DOX, 50 mg/kg",98.3%
same,% Wolbachia reduction,"[2]; Table 3, 50 mg/kg qd oral 7 d, 50 mg/kg",77.4%
same,% Wolbachia reduction,"[2]; Table 3, 50 mg/kg qd oral 7 d, listed as DOX, 50 mg/kg",77.4%
same,% Wolbachia reduction,"[2]; Table 3, 50 mg/kg qd oral 14 d, 50 mg/kg",99.3%
same,% Wolbachia reduction,"[2]; Table 3, 50 mg/kg qd oral 14 d, listed as DOX, 50 mg/kg",99.3%
same,% Wolbachia reduction,[3],99.1%
same,% reduction in microfilariae,[4],90.5%
same,% Wolbachia reduction,[5],99.8%
"CC[C@H]1OC(=O)C[C@@H](O)[C@H](C)[C@@H](O[C@@H]2O[C@H](C)[C@@H](O[C@H]3C[C@@](C)(O)[C@@H](O)[C@H](C)O3)[C@H](N(C)C)[C@H]2O)[C@@H](CC=O)C[C@@H](C)C(=O)/C=C/C(C)=C/[C@@H]1CO[C@@H]1O[C@H](C)[C@@H](O)[C@@H](OC)[C@H]1OC [Tylosin A, 2-((4R,5S,6S,7R,9R,11E,13E,15R,16R)-6-(((2R,3R,4R,5S,6R)-5-(((2S,4R,5S,6S)-4,5-dihydroxy-4,6-dimethyltetrahydro-2H-pyran-2-yl)oxy)-4-(dimethylamino)-3-hydroxy-6-methyltetrahydro-2H-pyran-2-yl)oxy)-16-ethyl-4-hydroxy-15-((((2R,3R,4R,5R,6R)-5-hydroxy-3,4-dimethoxy-6-methyltetrahydro-2H-pyran-2-yl)oxy)methyl)-5,9,13-trimethyl-2,10-dioxooxacyclohexadeca-11,13-dien-7-yl)acetaldehyde]",EC50,"[6]; C6/36, 168 h",36 nM
same,EC50,[6],24 nM and 26 nM
same,Wolbachia reduction,"[1]; 7 days treatment, oral dosing",21.9%
same,Wolbachia reduction,"[1]; 7 days treatment, parenteral (intraperitoneal) dosing",91.7%
same,% Wolbachia reduction,"[2]; Table 2, 50 mg/kg qd IP 14 d, 50 mg/kg",99.9%
same,% Wolbachia reduction,"[2]; Table 2, 50 mg/kg qd IP 14 d, listed as TYL A, 50 mg/kg",99.9%
same,% Wolbachia reduction,[2]; [8],50.4%
same,% Wolbachia reduction,"[2]; Table 2, 50 mg/kg qd PO 14 d, listed as TYL A, 50 mg/kg",50.4%
same,% Wolbachia reduction,"[7]; Table 4, 50 mg/kg qd oral 14 d, vs median vehicle control",0%
CN(C)c1ccc(O)c2c1C[C@H]1C[C@H]3[C@H](N(C)C)C(O)=C(C(N)=O)C(=O)[C@@]3(O)C(O)=C1C2=O [minocycline],% Wolbachia reduction,"[7]; Table 4, 25 mg/kg bid oral 28 d, vs median vehicle control, 25 mg/kg",83.8%
same,% Wolbachia reduction,"[7]; Table 4, 25 mg/kg bid oral 28 d, vs median vehicle control, listed as MIN, 25 mg/kg",83.8%
same,% Wolbachia reduction,"[7]; Table 5 dose escalation study, 25 mg/kg bid oral 28 d",95.5%
same,% Wolbachia reduction,[5],99.7%
"CC[C@H]1OC(=O)C[C@@H](O)[C@H](C)[C@@H](O[C@@H]2O[C@H](C)[C@@H](O)[C@H](N(C)C)[C@H]2O)[C@@H](CC=O)C[C@@H](C)C(=O)/C=C/C(C)=C/[C@@H]1CO[C@@H]1O[C@H](C)[C@@H](O)[C@@H](OC)[C@H]1OC [Tylosin B, desmycosin]",EC50,[6],88 nM
